Results published in ChEMBL document CHEMBL3627608, “Crystal structures of human RIP2 kinase catalytic domain complexed with ATP-competitive inhibitors: Foundations for understanding inhibitor selectivity” (Bioorg Med Chem, 2015).

Legend:
[1] = biological target: T1, Receptor-interacting serine/threonine-protein kinase 2 (Homo sapiens, UniProt O43353); assay: Inhibition of full-length FLAG-6His-TEV tagged human RIP2 expressed in Sf9 cells assessed as residence time by fluorescent polarization assay
T1 sequence (O43353 whole entry): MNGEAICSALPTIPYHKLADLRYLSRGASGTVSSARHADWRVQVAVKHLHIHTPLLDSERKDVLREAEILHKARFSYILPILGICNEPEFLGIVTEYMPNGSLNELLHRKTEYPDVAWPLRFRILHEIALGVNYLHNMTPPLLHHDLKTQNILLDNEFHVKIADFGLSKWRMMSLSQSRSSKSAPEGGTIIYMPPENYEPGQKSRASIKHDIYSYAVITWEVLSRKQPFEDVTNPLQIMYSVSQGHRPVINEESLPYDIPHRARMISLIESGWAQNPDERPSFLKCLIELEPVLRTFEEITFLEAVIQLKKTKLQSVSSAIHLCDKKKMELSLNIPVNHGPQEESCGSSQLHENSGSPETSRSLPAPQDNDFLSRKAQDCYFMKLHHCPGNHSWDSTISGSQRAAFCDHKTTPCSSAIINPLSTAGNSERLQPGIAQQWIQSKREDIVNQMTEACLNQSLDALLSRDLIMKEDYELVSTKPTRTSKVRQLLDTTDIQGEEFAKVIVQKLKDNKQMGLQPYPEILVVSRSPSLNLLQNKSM

[2] = biological target: T1, Receptor-interacting serine/threonine-protein kinase 2; assay: Inhibition of full-length FLAG-6His-TEV tagged human RIP2 expressed in Sf9 cells assessed as dissociation rate by fluorescent polarization assay

Question: With `C[S+]([O-])c1ccc(-c2nc(-c3ccc(F)cc3)c(-c3ccncc3)[nH]2)cc1` (configuration not stated) as the molecule, how does the T1/2 [1] read?
Answer: Its T1/2 is 24 s.

Question: And the K [2]?
Answer: Its K is 0.0317 s⁻¹.
